Consider 20 compounds from patent US20120010178A1, “METHODS AND COMPOUNDS FOR TREATMENT OF NEURODEGENERATIVE DISORDERS” (PRESIDENT AND FELLOWS OF HARVARD COLLEGE, priority 2008, published 2012).

“Also recorded” adds a separate entry of the source. Residues, ends and D or L forms follow the SMILES beside them. *: point of attachment. Cbz = O=C(OCc1ccccc1)*

Assay [1] deals with SMN. Put plainly: SMN immunofluorescence quantification (cytoplasm, nucleus, GEMs) in fibroblasts from SMA patients. It is filed as cell-based, human. To be noted: for levels of cytoplasmic and nuclear SMN (in words) / fold increase in nuclear SMN / fold increase in cytoplasmic SMN: SMA patient fibroblasts; for levels of cytoplasmic and nuclear SMN (in words): substance alone. As to the method: Specifically, fibroblasts from patients suffering from SMA were treated with Ionomycin (a channel modulator), Ouabain (a cardiac glycoside and channel modulator), PDGF, SAHA (an HDAC inhibitor), Lactacystin (a proteasome inhibitor) or WIN 55,212-2 (a cannabinoid receptor […] and GPCR ligand) for 72 hours. The cells were fixed with methanol/acetone and stained with Pharmingen BD antibodies, followed by 488 AlexaFluor staining. Images were obtained with 60× lens on Zeiss LSM510 META on an inverted confocal microscope.
For example, fibroblasts from patients suffering from SMA were treated with Ouabain, Digoxin or Lanatoside at a concentration of 0, 2.5 nM, 5 nM, 10 nM, 20 nM, 40 nM, 80 nM, […] for 72 hours. The cells were fixed with methanol/acetone and stained with Pharmingen BD antibodies, followed by 488 AlexaFluor staining. Images were obtained with 60× lens on Zeiss LSM510 META on an inverted confocal microscope.
An assay was established for high-content evaluation of SMN protein level in different cellular compartments after treatment with small molecules. SMN protein was visualized by immunofluorescent staining and multiple fields from each plate well were scanned by an automated confocal Opera microscope. […] For each well, the algorithm generated quantitative parameters representing number of cells, as well as SMN fluorescent intensity per cell in cytoplasm, nucleus, number and intensity of GEMs (FIG. 15). […] During the assay transfer to the robotic platform fixation with the ice cold methanol was technically limited, therefore to preserve the maximum possible window we chose to perform the screen on parental fibroblast with PFA fixation.
For fibroblast assays, human fibroblasts lines GM09677 (derived from patient with SMA type 1 disease) and GM03814 (derived from unaffected parental SMA carriers) were used (Coriell Cell Repositories). […] For secondary assays cells from GM09677 line were used.
Fibroblasts were grown in MEM media (Invitrogen) supplemented with 5% Fetal Bovine Serum (FBS, Invitrogen), 2 mM glutamine and 1% penicillin-streptomycin (100 U/ml) in a presence of 5% CO2 at 37° C. For drug treatments, cells were plated and treated 24 h later with 10 μM MG132 (Biomol International), […] Calpeptin (Biomol International), 10 mM ammonium chloride, 1 μM myristoylated PKI, or vehicle for the designated times.
Compounds were stored at appropriate temperature and dissolved accordingly to the manufacturers (Tocris, Enzo, EMD and Sigma-Aldrich) in DMSO (Sigma-Aldrich), unless stated otherwise (Monensin Na in EtOH, DMPQ in water). Growth factors and PDGF neutralizing antibodies (R&D Systems) were reconstituted with buffers recommended by the supplier. For generation of the dose curves, 1×10^3 fibroblasts were plated on to 96-well Greiner Senso plates (VWR) and treated with compounds on the second day then fixed and stained at the indicated time points. For GSK inhibitors and performing p-GSK3b(Ser9) detection, two days after plating growth media containing 5% FBS was replaced to the media with FBS reduced down to 0.5%, to starve cells for 72 hours. Addition of the GSK inhibitors was done in 5% FBS enriched media.

The subject of assay [2] is SMN. Put plainly: High-content fibroblast screen for compounds that modulate SMN level.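 On all read-outs here: Anti-SMN immunostaining with confocal imaging of nuclear and cytoplasmic SMN and gem counts, tested at 0.1, 1 and 10 uM, fold change relative to negative control wells on each plate.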 To be noted: for SMN level in fibroblast screen (increase or decrease): human fibroblasts, 2-3 days with compound.
Experimental: Human fibroblasts were incubated for 2-3 days with compounds from annotated collections. Cells were fixed and stained with an anti-SMN antibody. Confocal imaging was used to quantify SMN fluorescence in nucleus and cytoplasm and count Gems. Data were collected and subsequently analyzed by clustering compounds by suspected mechanism of action and chemical structure.
Following optimization of assay conditions on day 0, total of 500 human fibroblasts (GM09677 line) per well were seeded in 384-well plates, on day 3 they were treated with compounds (robot CyBio) from the annotated collections and on the 5 day plates were fixed and stained (robot MAPD) with an anti-SMN antibody and secondary antibody conjugated with 448 fluorophore (FIG. 19a). Compounds from the libraries were added in duplicate at three final concentrations of 10, 1 and 0.1 uM.
SMN detection was done on the automated confocal microscope Opera PerkinElmer with separate fluorescent exposures to 488 nM laser for and a UV light source to detect nuclei stained with Hoechst 33258 with a 20× objective.
After scanning on the Opera, an XML file extraction workflow, designed with Inforsense KDE, was used to assemble the data from multiple replicate plates of each HCS experiment including the quantitative parameters described above and chemical identities, chemical concentrations and indications of which wells were used for positive and negative controls. […] The fold-induction of SMN intensity values for each well treated with a library chemical were normalized to the SMN average intensity in multiple negative control wells per plate.
Since it is not known which form of SMN increase is the most essential, hits that scored in a duplicate at least in two different parameters greater than 1.3 fold at any of the three concentrations were selected (FIG. 19d). […] Further, 220 compounds were screened in the absence of anti-SMN primary antibody with the same assay conditions, to filter out the fluorescent compounds.

In the case of `N#CCCc1ccc2c(c1)-c1[nH]c3ccc([N+](=O)[O-])cc3c1CC(=O)N2`, the “levels of cytoplasmic and nuclear SMN (in words)” value (from here on “levels”) with SMN [1] is “able to elevate SMN in patient fibroblasts”. The “SMN level in fibroblast screen (increase or decrease)” value (“SMN level … (increase or decrease)” below) with SMN [2] is reported as “SMN is increase”.
Regarding `CNc1ccc2oc(C[C@H]3O[C@@]4(CC[C@H]3C)O[C@H]([C@H](C)C(=O)c3ccc[nH]3)[C@H](C)C[C@H]4C)nc2c1C(=O)O` [Calcimycin], the “levels” value was “elevation of SMN levels; also recorded: active in elevating the levels of SMN; also recorded: generally active” with SMN [1] and “active” in the assay with SMN [1] (listed as A23187). In addition, the “SMN level … (increase or decrease)” value in the assay with SMN [2] is “increase SMN”.
In the case of `O=C1Nc2ccc3ncsc3c2/C1=C/Nc1ccc(S(=O)(=O)Nc2ccccn2)cc1` [GW8510], in the assay on SMN [2], the “SMN level … (increase or decrease)” value is reported as “SMN is increase”.
Same read-out and setting: in the case of `O=C(Nc1cc(C(F)(F)F)cc(C(F)(F)F)c1)c1cc(Cl)ccc1O` [IMD-0354] it was “SMN is increase”.
Turning to `C[C@H](CCC(=O)O)C[C@H](C)C[C@H](C)C(=O)/C=C(\O)[C@H](C)C[C@H](C)C/C=C/[C@@H](C)[C@@H](O)[C@@H](C)[C@@H](O)C[C@@H]1CC[C@@](C)([C@H]2CC[C@@](C)([C@@H](C)O)O2)O1` [Ionomycin], the “levels” value in the assay with SMN [1] is “increase in SMN levels; also recorded: active in elevating the levels of SMN; also recorded: able to increase SMN level”; in the assay on SMN [1] (listed as ionomycin) it was “elevation of SMN levels; also recorded: active”. In the assay on SMN [2], the “SMN level … (increase or decrease)” value is recorded as “increase SMN”.
With `CC(=O)N[C@@H](CSC(=O)[C@]1([C@@H](O)C(C)C)NC(=O)[C@H](C)[C@@H]1O)C(=O)O` [Lactacystin], the “levels” value in the assay on SMN [1] is recorded as “increase in SMN levels”. In the assay on SMN [1] (fibroblasts), the “effect on GEMs (number / intensity, in words)” value is listed as “mostly affected GEMs”. The “SMN level … (increase or decrease)” value in the assay with SMN [2] is reported as “increase SMN”.
With `CC(=O)O[C@H]1C[C@H](O[C@H]2[C@@H](O)C[C@H](O[C@H]3[C@@H](O)C[C@H](O[C@H]4CC[C@@]5(C)[C@H](CC[C@@H]6[C@@H]5C[C@@H](O)[C@]5(C)[C@@H](C7=CC(=O)OC7)CC[C@]65O)C4)O[C@@H]3C)O[C@@H]2C)O[C@H](C)[C@H]1O[C@@H]1O[C@H](CO)[C@@H](O)[C@H](O)[C@H]1O` [Lanatoside C], in the assay on SMN [2], the “SMN level … (increase or decrease)” value is listed as “increase SMN”.
Still for that read-out and setting: the value for `Clc1ccc2ncnc(NCc3ccc4c(c3)OCO4)c2c1` [MBCQ] was “increase SMN”; that for `CC(C)C[C@@H](C=O)NC(=O)[C@H](CC(C)C)NC(=O)[C@H](CC(C)C)NC(=O)OCc1ccccc1` [MG-132] (Cbz-Leu-Leu-Leu-aldehyde) was “increase SMN”.
In the case of `CC[C@@]1([C@@H]2O[C@@H]([C@H]3O[C@@](O)(CO)[C@H](C)C[C@@H]3C)C[C@@H]2C)CC[C@H]([C@]2(C)CC[C@]3(C[C@H](O)[C@@H](C)[C@@H]([C@@H](C)[C@@H](OC)[C@H](C)C(=O)O)O3)O2)O1` [Monensin Na], the “fold increase in nuclear SMN” value with SMN [1] amounted to 2 fold. In addition, the “SMN level … (increase or decrease)” value in the assay with SMN [2] is “increase SMN”.
For the compound `O=C(Nc1ccc([N+](=O)[O-])cc1Cl)c1cc(Cl)ccc1O` [Niclosamide], the “SMN level … (increase or decrease)” value with SMN [2] is given as “SMN is increase”.
`C[C@@H]1O[C@@H](O[C@H]2C[C@@H](O)[C@]3(CO)[C@H]4[C@H](O)C[C@]5(C)[C@@H](C6=CC(=O)OC6)CC[C@]5(O)[C@@H]4CC[C@]3(O)C2)[C@H](O)[C@H](O)[C@H]1O` [Ouabain]: the “levels” value in the assay on SMN [1] was “increase in SMN levels”. The “SMN level … (increase or decrease)” value in the assay on SMN [2] was “increase SMN”; with SMN [2] (listed as ouabain), “consistently emerged as hits”.
For the compound `Nc1ccc(-c2cccc3c(=O)cc(N4CCOCC4)oc23)cc1` [PI-828], the “SMN level … (increase or decrease)” value with SMN [2] is listed as “decreased SMN”.
Consider `O=C1Nc2ccc3ncsc3c2C1=Cc1cnc[nH]1` [PKR inhibitor, 6,8-Dihydro-8-(1H-imidazol-5-ylmethylene)-7H-pyrrolo[2,3-g]benzothiazol-7-one], for which, in the assay with SMN [1], the “fold increase in cytoplasmic SMN” value is 2 fold and the “fold increase in nuclear SMN” value is 1.5 fold. Moreover, the “SMN level … (increase or decrease)” value with SMN [2] is given as “SMN is increase”.
For the compound `O=C(CCCCCCC(=O)Nc1ccccc1)NO` [SAHA, Suberoylanilide Hydroxamic Acid], the “levels” value with SMN [1] is recorded as “increase in SMN levels”. For the same compound, the “effect on GEMs (number / intensity, in words)” value in the assay on SMN [1] (fibroblasts) was “increased GEM counts at the lower concentrations”. Moreover, the “nuclear SMN at the higher dosage (in words)” value with SMN [1] (fibroblasts, higher dosage) is recorded as “increased nuclear SMN predominantly”. Also, in the assay on SMN [2], the “SMN level … (increase or decrease)” value was “increase SMN”.
Consider `C/C=C(/C)C(=O)O[C@H]1C(C)=C2[C@H]([C@@H]1OC(=O)CCCCCCC)[C@@](C)(OC(C)=O)C[C@H](OC(=O)CCC)[C@@]1(O)[C@H]2OC(=O)[C@@]1(C)O` [Thapsigargin], for which the “levels” value in the assay on SMN [1] is reported as “active in elevating the levels of SMN; also recorded: generally active; also recorded: caused SMN upregulation”; with SMN [1] (listed as thapsigagin), “elevation of SMN levels”. Moreover, the “SMN level … (increase or decrease)” value with SMN [2] is reported as “increase SMN”.
For `CC(C)[C@@H]1NC(=O)[C@H](C)OC(=O)[C@@H](C(C)C)NC(=O)[C@@H](C(C)C)OC(=O)[C@H](C(C)C)NC(=O)[C@H](C)OC(=O)[C@@H](C(C)C)NC(=O)[C@@H](C(C)C)OC(=O)[C@H](C(C)C)NC(=O)[C@H](C)OC(=O)[C@@H](C(C)C)NC(=O)[C@@H](C(C)C)OC1=O` [Valinomycin], in the assay on SMN [2], the “SMN level … (increase or decrease)” value is recorded as “increase SMN”.
In the case of `Cc1c(C(=O)c2cccc3ccccc23)c2cccc3c2n1[C@H](CN1CCOCC1)CO3` [WIN 55, 212-2], in the assay on SMN [1], the “fold increase in cytoplasmic SMN” value was 1.5 fold; the “fold increase in nuclear SMN” value worked out at 2 fold; the “levels” value is reported as “increase in SMN levels”. Moreover, in the assay on SMN [2], the “SMN level … (increase or decrease)” value was “increase SMN”.
As to Coumermycin A1, in the assay on SMN [2] (during screening), the “concentration at which SMN level was increased” value came to 10 µM. Also, the “SMN level … (increase or decrease)” value in the assay on SMN [2] is “increase SMN”.
ceramide: in the assay on SMN [2], the “SMN level … (increase or decrease)” value is “increase SMN”.
